The results in this text go back to PubChem BioAssay AID248 (DTP/NCI, 2004).

Each structure is given as a SMILES string. Values joined by “and” are separate entries in the source; they are usually repeats but may differ in a detail not shown here. Equal values may be shown once. Inconclusive results and toxic doses are left out.

For the assay, the system named is L1210 leukemia ip in BDF1 mice, survival T/C. Nature of the assay: NCI In Vivo Anticancer Drug Screen. Data for tumor model L1210 Leukemia (intraperitoneal) in B6D2F1 (BDF1) mice. The settings on record: endpoint: mean survival time, higher = longer survival. In a few lines: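 Ratio derived from survival: compound-dosed mice over vehicle-dosed mice, all bearing a transplantable tumor.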

The mark [1] stands for this setting: dose: 6.25 mg/kg/injection, schedule: Q01DX009 (ip), vehicle: Klucel (hydroxypropylcellulose) (HPC).
[2] abbreviates: dose: 12.5 mg/kg/injection, schedule: Q01DX009 (ip), vehicle: Klucel (hydroxypropylcellulose) (HPC).
[3] abbreviates: dose: 25.0 mg/kg/injection, schedule: Q01DX009 (ip), vehicle: saline with Tween-80.
Setting [4] is: dose: 100.0 mg/kg/injection, schedule: Q04DX002 (ip), vehicle: Klucel (hydroxypropylcellulose) (HPC).
Where [5] appears, read: dose: 100.0 mg/kg/injection, schedule: Q01DX009 (ip), vehicle: saline.
Setting [6] is: dose: 100.0 mg/kg/injection, schedule: Q04DX003 (ip), vehicle: Klucel (hydroxypropylcellulose) (HPC).
The mark [7] stands for this setting: dose: 200.0 mg/kg/injection, schedule: Q04DX003 (ip), vehicle: Klucel (hydroxypropylcellulose) (HPC).
The mark [8] stands for this setting: dose: 400.0 mg/kg/injection, schedule: Q04DX003 (ip), vehicle: Klucel (hydroxypropylcellulose) (HPC).
[9] abbreviates: dose: 100.0 mg/kg/injection, schedule: Q01DX009 (ip), vehicle: saline with Tween-80.
[10] abbreviates: dose: 100.0 mg/kg/injection, schedule: Q04DX003 (ip), vehicle: saline with Tween-80.
The mark [11] stands for this setting: dose: 100.0 mg/kg/injection, schedule: Q04DX003 (ip), vehicle: saline.
The mark [12] stands for this setting: dose: 200.0 mg/kg/injection, schedule: Q04DX003 (ip), vehicle: saline.
Where [13] appears, read: dose: 400.0 mg/kg/injection, schedule: Q04DX003 (ip), vehicle: saline.
[14] abbreviates: dose: 100.0 mg/kg/injection, schedule: Q04DX002 (ip), vehicle: saline.
Where [15] appears, read: dose: 200.0 mg/kg/injection, schedule: Q04DX002 (ip), vehicle: saline.
[16] abbreviates: dose: 400.0 mg/kg/injection, schedule: Q04DX002 (ip), vehicle: saline.
The mark [17] stands for this setting: dose: 200.0 mg/kg/injection, schedule: Q01DX009 (ip), vehicle: saline.
Where [18] appears, read: dose: 400.0 mg/kg/injection, schedule: Q01DX009 (ip), vehicle: saline.

Take `Cc1ccc(C(=O)[O][Hg][CH2]C2COC([CH2][Hg][O]C(=O)c3ccc(C)cc3)CO2)cc1` (configuration not stated): the T/C is, setting by setting: (dose: 3.12 mg/kg/injection, schedule: Q01DX009 (ip), vehicle: Klucel (hydroxypropylcellulose) (HPC)) 93 % of control; under setting [1], 93 % of control; (dose: 6.25 mg/kg/injection, schedule: Q01DX009 (ip), vehicle: saline with Tween-80) 113 % of control; under setting [2], 94 % of control; (dose: 12.5 mg/kg/injection, schedule: Q01DX009 (ip), vehicle: saline with Tween-80) 100 % of control; under setting [3], 105 % of control. Moreover, the T/C is, setting by setting: (dose: 25.0 mg/kg/injection, schedule: Q04DX003 (ip), vehicle: other) 92 % of control; (dose: 50.0 mg/kg/injection, schedule: Q04DX003 (ip), vehicle: other) 90 % of control; (dose: 100.0 mg/kg/injection, schedule: Q04DX003 (ip), vehicle: other) 95 % of control.

Turning to `CCCCCC(C[N+](C)(C)C)C(=O)/C=C/c1ccc(Cl)c(Cl)c1` (configuration not stated), the T/C runs as follows: (dose: 25.0 mg/kg/injection, schedule: Q04DX002 (ip), vehicle: Klucel (hydroxypropylcellulose) (HPC)) 91 % of control; (dose: 50.0 mg/kg/injection, schedule: Q04DX002 (ip), vehicle: Klucel (hydroxypropylcellulose) (HPC)) 98 % of control; under setting [4], 95 % of control.

Turning to `O=C(Nc1ccc(S(=O)(=O)F)cc1)/C(=C/c1cccc([N+](=O)[O-])c1)c1ccccc1`, the T/C reads like this: (dose: 100.0 mg/kg/injection, schedule: Q01DX009 (ip), vehicle: Klucel (hydroxypropylcellulose) (HPC)) 106 % of control; (dose: 200.0 mg/kg/injection, schedule: Q01DX009 (ip), vehicle: Klucel (hydroxypropylcellulose) (HPC)) 94 % of control; (dose: 400.0 mg/kg/injection, schedule: Q01DX009 (ip), vehicle: Klucel (hydroxypropylcellulose) (HPC)) 100 % of control.

Consider `NNP(=O)(Oc1ccccc1)Oc1ccccc1`, for which the T/C is 108 % of control (dose: 50.0 mg/kg/injection, schedule: Q01DX009 (ip), vehicle: saline); 110 % of control (dose: 75.0 mg/kg/injection, schedule: Q01DX001 (ip), vehicle: acetone); 124 % of control under setting [5]; 103 % of control (dose: 150.0 mg/kg/injection, schedule: Q01DX001 (ip), vehicle: acetone); 97 % of control (dose: 300.0 mg/kg/injection, schedule: Q01DX001 (ip), vehicle: acetone).

For `CC(=O)C1=C(c2ccccc2)C(=O)C(C(C)=O)=C(c2ccccc2)C1=O`, the T/C by setting is: under setting [6], 100 % of control; under setting [7], 100 % of control; under setting [8], 96 % of control.

As to `O=P1(N(CCCl)CCCl)NC(OO)CCO1` (configuration not stated), under “dose: 200.0 mg/kg/injection, schedule: Q01DX001 (ip), vehicle: DMSO”, the T/C is 270 % of control.

In the case of `COc1cc(CCl)c(OC)cc1Cl`, the T/C was 100 % of control under setting [9]; 99 % of control under setting [10]; 106 % of control (dose: 200.0 mg/kg/injection, schedule: Q01DX009 (ip), vehicle: saline with Tween-80); 91 % of control (dose: 200.0 mg/kg/injection, schedule: Q04DX003 (ip), vehicle: saline with Tween-80); 99 % of control (dose: 400.0 mg/kg/injection, schedule: Q04DX003 (ip), vehicle: saline with Tween-80).

Regarding `CN(C)c1cc(O)ccc1[N+](=O)[O-]`, the T/C by setting is: under setting [11], 103 % of control; under setting [12], 95 % of control; under setting [13], 100 % of control.

Regarding `Cc1cccc(C)c1N=C=S`, the T/C runs as follows: (dose: 25.0 mg/kg/injection, schedule: Q04DX003 (ip), vehicle: saline with Tween-80) 100 % of control; (dose: 50.0 mg/kg/injection, schedule: Q04DX003 (ip), vehicle: saline with Tween-80) 96 % of control; under setting [10], 98 % of control.

Regarding `Cc1ccc(NN)cc1Cl`, the T/C under setting [6] is 105 % of control and the T/C under setting [7] was 91 % of control.

`CC(=O)OCC/[N+]([O-])=C\c1ncc([N+](=O)[O-])n1C`: the T/C is, setting by setting: under setting [14], 100 % of control; under setting [15], 114 % of control; under setting [16], 100 % of control.

`CCCCS(=O)(=O)N(CCC)CCC`: the T/C runs as follows: (dose: 100.0 mg/kg/injection, schedule: Q04DX002 (ip), vehicle: saline with Tween-80) 93 % of control; (dose: 200.0 mg/kg/injection, schedule: Q04DX002 (ip), vehicle: saline with Tween-80) 93 % of control; (dose: 400.0 mg/kg/injection, schedule: Q04DX002 (ip), vehicle: saline with Tween-80) 97 % of control.

Turning to `CC(=O)N1CCC(CC(O)Cc2ccnc3ccccc23)CC1` (configuration not stated), the T/C under setting [11] was 97 % of control and the T/C under setting [12] was 97 % of control.

`C=CCCCCCCCCC(=O)N(C)OC`: the T/C under setting [3] is 97 % of control; the T/C (dose: 50.0 mg/kg/injection, schedule: Q01DX009 (ip), vehicle: saline with Tween-80) was 105 % of control; the T/C under setting [9] is 94 % of control and 92 % of control.

`CCCCCCC(O)C/C=C\CCCCCCCCO` (configuration not stated): the T/C runs as follows: under setting [5], 121 % of control; under setting [11], 101 % of control; under setting [17], 115 % of control; under setting [12], 99 % of control; under setting [18], 103 % of control; under setting [13], 104 % of control.

For `CC(OC(=O)CC(=O)CCl)c1ccccc1` (configuration not stated), the T/C runs as follows: under setting [4], 102 % of control; (dose: 200.0 mg/kg/injection, schedule: Q04DX002 (ip), vehicle: Klucel (hydroxypropylcellulose) (HPC)) 98 % of control; (dose: 400.0 mg/kg/injection, schedule: Q04DX002 (ip), vehicle: Klucel (hydroxypropylcellulose) (HPC)) 87 % of control.

For `O=C(N/N=C\c1ccc(O)cc1)N/N=C/c1ccc(O)cc1`, the T/C is, setting by setting: (dose: 100.0 mg/kg/injection, schedule: Q01DX001 (ip), vehicle: Klucel (hydroxypropylcellulose) (HPC)) 94 % of control; (dose: 200.0 mg/kg/injection, schedule: Q01DX001 (ip), vehicle: Klucel (hydroxypropylcellulose) (HPC)) 95 % of control; (dose: 400.0 mg/kg/injection, schedule: Q01DX001 (ip), vehicle: Klucel (hydroxypropylcellulose) (HPC)) 89 % of control.

For the compound `NCCc1nc(C(=O)O)cs1`, the T/C is, setting by setting: (dose: 100.0 mg/kg/injection, schedule: Q01DX001 (ip), vehicle: saline) 104 % of control; under setting [5], 86 % of control; under setting [11], 103 % of control; (dose: 200.0 mg/kg/injection, schedule: Q01DX001 (ip), vehicle: saline) 102 % of control; under setting [17], 97 % of control; under setting [12], 119 % of control. In addition, the T/C reads like this: (dose: 400.0 mg/kg/injection, schedule: Q01DX001 (ip), vehicle: saline) 104 % of control; under setting [18], 86 % of control; under setting [13], 92 % of control.

As to `O=[As](O)(O)Cc1ccc(F)cc1`, the T/C is, setting by setting: under setting [1], 96 % of control; under setting [2], 105 % of control; (dose: 25.0 mg/kg/injection, schedule: Q01DX009 (ip), vehicle: Klucel (hydroxypropylcellulose) (HPC)) 108 % of control.

`O=C(O)c1ccc(O)c([N+](=O)[O-])c1`: the T/C reads like this: under setting [5], 105 % of control; under setting [6], 101 % of control; under setting [17], 96 % of control; under setting [7], 100 % of control; under setting [18], 87 % of control; under setting [8], 102 % of control.

Consider `CC(=O)Nc1ccc(O)cc1`, for which the T/C is, setting by setting: (dose: 100.0 mg/kg/injection, schedule: Q01DX001 (ip), vehicle: carboxymethylcellulose (CMC)) 93 % of control; under setting [14], 116 % of control; under setting [6], 97 % of control; (dose: 200.0 mg/kg/injection, schedule: Q01DX001 (ip), vehicle: carboxymethylcellulose (CMC)) 96 % of control; under setting [15], 100 % of control; under setting [7], 104 % of control. Also, the T/C (dose: 400.0 mg/kg/injection, schedule: Q01DX001 (ip), vehicle: carboxymethylcellulose (CMC)) was 107 % of control; the T/C under setting [16] is 88 % of control; the T/C under setting [8] is 111 % of control.
